Measurements: US6482850B2, “Hydrolysis-promoting hydrophobic taxane derivatives” (priority 1995, dated 2002)
Like-named read-outs stand apart in the source and are kept apart here.

Assays:
[1] = tested on: A-549 human lung carcinoma; assay: In vitro sensitivity, sulforhodamine B cytotoxicity assay, A-549 (Table 2); format: cell-based; details: 72-hour incubation; averaged from two separate experiments
Description: Briefly, 96-well microtiter plates were inoculated (100 μL/well) with 5×10^3 (A549) or 7.5×10^3 (OVCAR-3) cells/well, in RPMI-1640 supplemented with 10% FBS (growth media). The plates were incubated for 24 hr at 37° C., 100% humidity and 5% CO2. At 24 hours, growth media (100 μL) was added to designated “time zero” plates. Similarly, serial dilutions of drug or vehicle (in media) were added (100 μL aliquots) to the test and vehicle control wells at twice the predetermined highest concentration. […] Cells (including time zero plates) were then fixed with 50 μL of 50% trichloroacetic acid (TCA) (w:v) for adherent cells or 80% TCA for suspended cells, and plates refrigerated at 4° C. for 1 hr. […] The plates were then air-dried for 24 hr.

[2] = tested on: MCF-7 human breast carcinoma; assay: In vitro sensitivity, sulforhodamine B cytotoxicity assay, MCF-7 (Table 2); format: cell-based; details: 72-hour incubation; averaged from two separate experiments
[3] = tested on: MCF-7/ADR (adriamycin-resistant); assay: In vitro sensitivity, sulforhodamine B cytotoxicity assay, MCF-7/ADR (Table 2); format: cell-based, human; details: 72-hour incubation; averaged from two separate experiments
[4] = tested on: HT-29 human colon carcinoma cells; assay: In vitro sensitivity, sulforhodamine B cytotoxicity assay, HT-29 (Table 2); format: cell-based; details: 72-hour incubation; averaged from two separate experiments
CDF1 female mice = assay: Acute toxicity of liposomal paclitaxel or paclitaxel derivative given intraperitoneally; details: i.p.; for number of mice that died within the first 14 days post-injection/total: liposomes
Description: Moreover, liposomes containing either paclitaxel or a 2′-(2-bromo) hydrophobic paclitaxel derivative (containing either a six-carbon (C-6), C-8, C-12, C-14 or C-16 acyl chain at the 2′ position) were administered, intraperitoneally in 5 doses, to SCID (severe combined inimunodeficiency) mice bearing a human ovarian cancer (OvCar 3), at a dose of 12.5 mg paclitaxel per kg or a dose of 50 mg paclitaxel derivative per kg.
CDF1 female mice, 5 or 10 mice per group, were intraperitoneally administered either paclitaxel-, 2′-C6-paclitaxel derivative-, or 2′-C16-paclitaxel derivative-containing liposomes, in a single dose, or 5 doses, of either 12.5, 25, 50, 100, 200, 300. 400 or 500 mg of paclitaxel or paclitaxel derivative per kg of mouse body weight.

CDF1 mice [5] = assay: In vivo toxicity, i.p. x 5, non-tumor bearing mice; details: 30 days observation
Description: (§1) A separate group (n=5) was injected with concentrations of Cremophor® EL and ethanol (in PBS) equivalent to the highest concentration of the test treatment. Mortality was recorded daily and body weights taken at least twice weekly for an observation period of 30 days.

CDF1 mice [6] = assay: In vivo toxicity, i.v. x 5, non-tumor bearing mice; details: 30 days observation
Description: as §1

[7] = tested on: OVCAR-3 human ovarian cancer; assay: s.c. OVCAR-3 tumor, i.v. treatment, tumor volume (FIG. 7); format: in vivo, mice
Description: OVCAR-3 human ovarian cancer.
The tumor volume (mm^3) from tumor measurement was calculated: (Length * (Width/2)^2 * π). Mice were sacrificed when the average tumor volume of the group reached 1500 mm^3.

[8] = Description: The 20 mg/mL formulation was further diluted to 6 mg/mL in 5% dextrose. […] At 0h, 24h, 1, 2, 3, 4, and 5 weeks samples were chromatographically analyzed by diluting the drugs to 1 mg/mL with 5% dextrose and then mixing 1:1 with acetonitrile. The chromatographic system consisted of a Shimadzu LC100 system with a UV detector. The column used was an Inertsil-ODS2, 150 ×4.6 mm (5 micron particle size) from Keystone Scientific (Bellefonte, Pa.). 20 μL of each sample was injected and read at 227 nm at ambient temperature. […] The constant flow rate was 1 mL/min.
OVCAR-3 cancer cells = details: read-out: GI50 ± S.D. OVCAR-3; 72 hr, SRB assay
Description: Briefly, 96-well microtiter plates were inoculated (100 μL/well) with 5×10^3 (A549) or 7.5×10^3 (OVCAR-3) cells/well, in RPMI-1640 supplemented with 10% FBS (growth media). The plates were incubated for 24 hr at 37° C., 100% humidity and 5% CO2. At 24 hours, growth media (100 μL) was added to designated “time zero” plates. Similarly, serial dilutions of drug or vehicle (in media) were added (100 μL aliquots) to the test and vehicle control wells at twice the predetermined highest concentration. There were triplicate wells on each plate and duplicate plates (total 6 wells) for each drug concentration. The test plates were incubated as above for 72 hr. Cells (including time zero plates) were then fixed with 50 μL of 50% trichloroacetic acid (TCA) (w:v) for adherent cells or 80% TCA for suspended cells, and plates refrigerated at 4° C. for 1 hr. […] The bound stain was solubilized with 100 μL of 10 mM Tris buffer and the optical density was read spectrophotometrically at 490 nm (Microplate Reader Model 3550-UV, Bio-Rad, Hercules, Calif.). Percent growth was calculated as follows: (T-T0) / (C-T0)×100; where (T)=mean optical density of treated wells at a given drug concentration, (T0)=mean optical density of time zero wells, and (C)=mean optical density of control wells.

A549 human NSCLC = assay: i.p. A549 tumor, i.p. treatment, survival; details: for % ILS / LTS/n / MST Days + SEM / Median survival time: treatment days 1, 3, 5, 7 and 9 i.p.
Description: Note that long-term survivors (mice that survived through day 300 after cell inoculation) were not included in mean, median, or % ILS calculations.
SCID mice (6/group) were injected with 5×10^6 A549 human NSCLC cells i.p. (day 0).

[9] = tested on: OVCAR-3 human ovarian cancer; assay: i.p. OVCAR-3 tumor, i.p. treatment, survival; details: for % ILS / LTS/n (mice that survived to 300 days) / MST Days ± SEM (n) / Median survival time: treated days 20, 22, 24, 26 and 28 i.p.; for MST Days ± SEM (n) / Median survival time: long-term survivors not included
Description: C.B-17 SCID female mice were injected i.p. with 5×10^6 OVCAR-3 human ovarian cancer cells (day 0). […] Note that long-term survivors (mice that survived through day 300 after cell inoculation) were not included in mean, median, or % ILS calculations.

Description for A549 cancer cells: Briefly, 96-well microtiter plates were inoculated (100 μL/well) with 5×10^3 (A549) or 7.5×10^3 (OVCAR-3) cells/well, in RPMI-1640 supplemented with 10% FBS (growth media). The plates were incubated for 24 hr at 37° C., 100% humidity and 5% CO2. At 24 hours, growth media (100 μL) was added to designated “time zero” plates. Similarly, serial dilutions of drug or vehicle (in media) were added (100 μL aliquots) to the test and vehicle control wells at twice the predetermined highest concentration. There were triplicate wells on each plate and duplicate plates (total 6 wells) for each drug concentration. The test plates were incubated as above for 72 hr. Cells (including time zero plates) were then fixed with 50 μL of 50% trichloroacetic acid (TCA) (w:v) for adherent cells or 80% TCA for suspended cells, and plates refrigerated at 4° C. for 1 hr. The supernatant was discarded (suspended cell plates were first centrifuged) and the wells rinsed six times with tap water and air-dried. One hundred microliters of 0.4% SRB in 1% acetic acid were added to each well and the plates were incubated under ambient (RT) conditions for 10 min. Unbound stain was removed by rinsing the wells three times with 1% acetic acid. The plates were then air-dried for 24 hr. The bound stain was solubilized with 100 μL of 10 mM Tris buffer and the optical density was read spectrophotometrically at 490 nm (Microplate Reader Model 3550-UV, Bio-Rad, Hercules, Calif.). Percent growth was calculated as follows: (T-T0) / (C-T0)×100; where (T)=mean optical density of treated wells at a given drug concentration, (T0)=mean optical density of time zero wells, and (C)=mean optical density of control wells.

CCCCCCCCCCCCCC[C@@H](Br)C(=O)O[C@@H](C(=O)O[C@H]1C[C@@]2(O)[C@@H](OC(=O)c3ccccc3)[C@@H]3[C@]4(OC(C)=O)CO[C@@H]4C[C@H](O)[C@@]3(C)C(=O)[C@H](OC(C)=O)C(=C1C)C2(C)C)[C@@H](NC(=O)c1ccccc1)c1ccccc1 [BrC16HT, 2′-(R)-[2-bromohexadecanoyl] paclitaxel]
GI50 [1]: 127 nM | GI50 [2]: 71 nM | GI50 [3]: > 10 µM | GI50 [4]: 59.5 nM | relative acute toxicity of the liposomes (CDF1 female mice; CDF1 mice): less toxic than were the 2-bromo-C6 paclitaxel derivative-containing liposomes | number of mice that died within the first 14 days post-injection/total (CDF1 female mice; single dose 300 mg/kg): 1/5 | number of mice that died within the first 14 days post-injection/total (CDF1 female mice; single dose 400 mg/kg): 1/5 | number of mice that died within the first 14 days post-injection/total (CDF1 female mice; single dose 500 mg/kg): 0/5 | Number of Mice surviving/Total (CDF1 mice [5]; i.p. days 1 through 5, 12.5 mg/kg): 10/10 | Number of Mice surviving/Total (CDF1 mice [5]; i.p. days 1 through 5, 25 mg/kg): 19/19 | Number of Mice surviving/Total (CDF1 mice [5]; i.p. days 1 through 5, 37.5 mg/kg): 10/10 | Number of Mice surviving/Total (CDF1 mice [5]; i.p. days 1 through 5, 50 mg/kg): 14/20 | Number of Mice surviving/Total (CDF1 mice [5]; i.p. days 1 through 5, 75 mg/kg): 0/5 | Number of Mice surviving/Total (CDF1 mice [5]; i.p. days 1 through 5, 100 mg/kg): 0/2 | Number of Mice surviving/Total (CDF1 mice [6]; i.v. days 1 through 5, 12.5 mg/kg): 10/10 | Number of Mice surviving/Total (CDF1 mice [6]; i.v. days 1 through 5, 25 mg/kg): 9/10 | Number of Mice surviving/Total (CDF1 mice [6]; i.v. days 1 through 5, 37.5 mg/kg): 0/10 | Number of Mice surviving/Total (CDF1 mice [6]; i.v. days 1 through 5, 50 mg/kg): 0/10 | delaying tumor growth ([7]; 12.5 mg/kg i.v. on days 1, 3, 5, 7 & 9): approximately 79 days | tumor growth suppression ([7]; 25 mg/kg i.v. on days 1, 3, 5, 7 & 9): suppressed tumor growth completely up to 120 days post-implantation | tumor growth vs. control ([7]; i.v. on days 1, 3, 5, 7 & 9, BrC16HT 12.5-25 mg/kg, Taxol® 25 mg/kg): significantly (p<0.05 vs. control) inhibited the tumor growth | Percentage of BrC16HT in Sample ([8]; 6 mg/mL in Crem/EtOH (50:50), undiluted, storage 4° C., 0 h): 93% | Percentage of BrC16HT in Sample ([8]; 6 mg/mL in Crem/EtOH (50:50), undiluted, storage 4° C., 1 Week): 83% | Percentage of BrC16HT in Sample ([8]; 6 mg/mL in Crem/EtOH (50:50), undiluted, storage 4° C., 2 Week): 93% | Percentage of BrC16HT in Sample ([8]; 6 mg/mL in Crem/EtOH (50:50), undiluted, storage 4° C., 3 Week): 61% | Percentage of BrC16HT in Sample ([8]; 6 mg/mL in Crem/EtOH (50:50), undiluted, storage 4° C., 4 Week): 58% | Percentage of BrC16HT in Sample ([8]; 6 mg/mL in Crem/EtOH (50:50), undiluted, storage 4° C., 5 Week): 53% | Percentage of BrC16HT in Sample ([8]; 6 mg/mL in Crem/EtOH (50:50), undiluted, storage 4° C., 24 h): 89% | Percentage of BrC16HT in Sample ([8]; 6 mg/mL in Crem/EtOH (50:50), undiluted, storage 26° C., 0 h): 95% | Percentage of BrC16HT in Sample ([8]; 6 mg/mL in Crem/EtOH (50:50), undiluted, storage 26° C., 1 Week): 42% | Percentage of BrC16HT in Sample ([8]; 6 mg/mL in Crem/EtOH (50:50), undiluted, storage 26° C., 2 Week): 22% | Percentage of BrC16HT in Sample ([8]; 6 mg/mL in Crem/EtOH (50:50), undiluted, storage 26° C., 3 Week): 14% | Percentage of BrC16HT in Sample ([8]; 6 mg/mL in Crem/EtOH (50:50), undiluted, storage 26° C., 4 Week): 8% | Percentage of BrC16HT in Sample ([8]; 6 mg/mL in Crem/EtOH (50:50), undiluted, storage 26° C., 5 Week): 5% | Percentage of BrC16HT in Sample ([8]; 6 mg/mL in Crem/EtOH (50:50), undiluted, storage 26° C., 24 h): 84% | Percentage of BrC16HT in Sample ([8]; 20 mg/mL in Crem/EtOH (50:50) diluted with 5% dextrose to 6 mg/mL, storage 4° C., 0 h): 92% | Percentage of BrC16HT in Sample ([8]; 20 mg/mL in Crem/EtOH (50:50) diluted with 5% dextrose to 6 mg/mL, storage 4° C., 1 Week): 90% | Percentage of BrC16HT in Sample ([8]; 20 mg/mL in Crem/EtOH (50:50) diluted with 5% dextrose to 6 mg/mL, storage 4° C., 2 Week): 88% | Percentage of BrC16HT in Sample ([8]; 20 mg/mL in Crem/EtOH (50:50) diluted with 5% dextrose to 6 mg/mL, storage 4° C., 3 Week): 83% | Percentage of BrC16HT in Sample ([8]; 20 mg/mL in Crem/EtOH (50:50) diluted with 5% dextrose to 6 mg/mL, storage 4° C., 4 Week): 85% | Percentage of BrC16HT in Sample ([8]; 20 mg/mL in Crem/EtOH (50:50) diluted with 5% dextrose to 6 mg/mL, storage 4° C., 5 Week): 82% | Percentage of BrC16HT in Sample ([8]; 20 mg/mL in Crem/EtOH (50:50) diluted with 5% dextrose to 6 mg/mL, storage 4° C., 24 h): 91% | Percentage of BrC16HT in Sample ([8]; 20 mg/mL in Crem/EtOH (50:50) diluted with 5% dextrose to 6 mg/mL, storage 26° C., 0 h): 97% | Percentage of BrC16HT in Sample ([8]; 20 mg/mL in Crem/EtOH (50:50) diluted with 5% dextrose to 6 mg/mL, storage 26° C., 1 Week): 93% | Percentage of BrC16HT in Sample ([8]; 20 mg/mL in Crem/EtOH (50:50) diluted with 5% dextrose to 6 mg/mL, storage 26° C., 2 Week): 90% | Percentage of BrC16HT in Sample ([8]; 20 mg/mL in Crem/EtOH (50:50) diluted with 5% dextrose to 6 mg/mL, storage 26° C., 3 Week): 81% | Percentage of BrC16HT in Sample ([8]; 20 mg/mL in Crem/EtOH (50:50) diluted with 5% dextrose to 6 mg/mL, storage 26° C., 4 Week): 88% | Percentage of BrC16HT in Sample ([8]; 20 mg/mL in Crem/EtOH (50:50) diluted with 5% dextrose to 6 mg/mL, storage 26° C., 5 Week): 87% | Percentage of BrC16HT in Sample ([8]; 20 mg/mL in Crem/EtOH (50:50) diluted with 5% dextrose to 6 mg/mL, storage 26° C., 24 h): 99% | GI50 relative to Taxol® (A549 cancer cells; in both cell lines (A549, OVCAR-3)): approximately ten times higher than Taxol® | GI50 (A549 cancer cells; read-out: GI50 ± S.D. A549, 72 hr, SRB assay): 29 ± 5.9 nM | GI50 (OVCAR-3 cancer cells): 20 ± 3.3 nM | survival time of tumor-bearing mice vs. control (A549 human NSCLC; i.p. on days 1, 3, 5, 7 & 9): significantly (p<0.05 vs. control) increased the survival time | % ILS (A549 human NSCLC; 25 mg/kg): 247% | LTS/n (A549 human NSCLC; 25 mg/kg): 0/6 | MST Days + SEM (A549 human NSCLC; 25 mg/kg): 117 + 8 Days | Median survival time (A549 human NSCLC; 25 mg/kg): 112 days | % ILS (A549 human NSCLC; 50 mg/kg): 450% | LTS/n (A549 human NSCLC; 50 mg/kg): 0/6 | MST Days + SEM (A549 human NSCLC; 50 mg/kg): 186 + 30 Days | Median survival time (A549 human NSCLC; 50 mg/kg): 171 days | survival compared to Taxol® 25 mg/kg ([9]; BrC16HT at both 25 and 50 mg/kg, delayed i.p. schedule): significantly increased survival | long-term survivors (LTS), in words ([9]; delayed i.p. schedule (Table 9b)): clear dose-response effect with regard to LTS | survival of tumor-bearing mice vs. control ([9]; early (days 1, 3, 5, 7 & 9) and delayed (days 20, 22, 24, 26 & 28) i.p. treatment schedules): significantly prolonged (p<0.05 vs. control) the survival | survival time compared with Taxol® at equivalent doses ([9]; early and delayed i.p. schedules): more effective than Taxol® in extending survival time | % ILS ([9]; 25 mg/kg): 115% | LTS/n (mice that survived to 300 days) ([9]; 25 mg/kg): 4/10 | MST Days ± SEM (n) ([9]; 25 mg/kg): 220 ± 13 (6) Days | Median survival time ([9]; 25 mg/kg): 221 days | % ILS ([9]; 50 mg/kg): 80% | LTS/n (mice that survived to 300 days) ([9]; 50 mg/kg): 7/10 | MST Days ± SEM (n) ([9]; 50 mg/kg): 183 ± 67 (3) Days | Median survival time ([9]; 50 mg/kg): 245 days
